Patent US11713344B2 (DONG-A ST CO., LTD., priority 2017, dated 2023)
*1 amine or outer side, *2 acyl side, *3 side chain or, on linkers, in order; H or OH if unused. Where a SMILES comes first, the peptide text is derived from it. Side-chain parts run from the residue outwards. [ ]: non-standard residue; d: D form. The star is where a group is joined. γGlu = O=C(O)[C@H](CCC(=O)[*:2])N[*:1]; Stearoyl = CCCCCCCCCCCCCCCCCC(=O)*; AEEA = NCCOCCOCC(=O)O; Aib = CC(C)(N)C(=O)O

Assays:
[1] = target: Human GLP-1 receptors (Homo sapiens, UniProt P43220); assay: GLP-1 receptor activation assay (CRE-luciferase reporter, CHO-K1)
[2] = target: Human glucagon receptors (Homo sapiens, UniProt P47871); assay: Glucagon receptor activation assay (CRE-luciferase reporter, CHO-K1)
Chain of Human glucagon receptors (P47871 26-477): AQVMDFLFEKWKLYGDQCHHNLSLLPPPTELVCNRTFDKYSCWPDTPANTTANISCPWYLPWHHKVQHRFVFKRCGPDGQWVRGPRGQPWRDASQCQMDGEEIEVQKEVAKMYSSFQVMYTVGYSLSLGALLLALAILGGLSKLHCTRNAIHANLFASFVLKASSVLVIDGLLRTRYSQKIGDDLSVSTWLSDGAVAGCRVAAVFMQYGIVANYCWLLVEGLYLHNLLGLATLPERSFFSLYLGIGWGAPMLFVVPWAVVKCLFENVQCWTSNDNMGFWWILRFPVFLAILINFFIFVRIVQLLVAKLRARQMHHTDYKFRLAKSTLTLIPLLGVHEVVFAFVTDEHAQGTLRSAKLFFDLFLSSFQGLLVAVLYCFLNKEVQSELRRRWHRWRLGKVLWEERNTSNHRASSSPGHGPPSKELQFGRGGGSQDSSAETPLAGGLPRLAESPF
Experimental: Then, the resulting increased luciferase activity was evaluated as a measurement of the effect on each receptor activation.
After 3 hours of transfection, medium was exchanged to Alpha Minimal Essential Medium (α-MEM) comprising 10% fetal bovine serum (FBS). Next day, the medium was exchanged to α-MEM comprising the analog of the present invention and 0.1% bovine serum albumin (BSA). After 6 hours, dual luciferase assay reagent was added in the same amount as the medium in which the cells were submerged, and firefly luciferase and Renilla luciferase activities were continuously measured. Firefly luciferase activity values were corrected against Renilla luciferase activity to yield transfection efficiency.

Chain of Human GLP-1 receptors (P43220 24-463): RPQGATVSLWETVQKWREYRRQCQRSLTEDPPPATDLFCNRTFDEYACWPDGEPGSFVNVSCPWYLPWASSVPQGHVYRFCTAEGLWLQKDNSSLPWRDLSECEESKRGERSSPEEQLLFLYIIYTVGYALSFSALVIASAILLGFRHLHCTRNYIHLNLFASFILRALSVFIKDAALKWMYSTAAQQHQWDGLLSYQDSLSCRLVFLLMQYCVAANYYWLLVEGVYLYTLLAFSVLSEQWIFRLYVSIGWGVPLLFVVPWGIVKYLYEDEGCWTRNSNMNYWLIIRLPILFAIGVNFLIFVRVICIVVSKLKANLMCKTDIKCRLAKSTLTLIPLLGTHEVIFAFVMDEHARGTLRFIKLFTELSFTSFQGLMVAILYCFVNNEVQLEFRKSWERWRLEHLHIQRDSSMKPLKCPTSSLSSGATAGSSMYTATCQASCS

Compound	EC50 [1] [nM]	EC50 [2] [nM]
CCCCCCCCCCCCCCCCCC(=O)N[C@@H](CCC(=O)NCCOCCOCC(=O)NCCOCCOCC(=O)NCCCC[C@H](NC(=O)[C@H](CC(=O)O)NC(=O)[C@H](CO)NC(=O)[C@@H](NC(=O)[C@H](Cc1ccccc1)NC(=O)[C@@H](NC(=O)CNC(=O)[C@H](CCC(N)=O)NC(=O)C(C)(C)NC(=O)[C@@H](N)Cc1c[nH]cn1)[C@@H](C)O)[C@@H](C)O)C(=O)N[C@@H](CO)C(=O)N[C@@H](CCCCN)C(=O)N[C@@H](Cc1ccc(O)cc1)C(=O)N[C@@H](CC(C)C)C(=O)N[C@@H](CC(=O)O)C(=O)NC(C)(C)C(=O)N[C@@H](CCCNC(=N)N)C(=O)N[C@@H](CCCNC(=N)N)C(=O)N[C@@H](C)C(=O)N[C@@H](CCC(N)=O)C(=O)N[C@@H](CC(=O)O)C(=O)N[C@@H](Cc1ccccc1)C(=O)N[C@H](C(=O)N[C@@H](CCC(N)=O)C(=O)N[C@@H](Cc1c[nH]c2ccccc12)C(=O)N[C@@H](CC(C)C)C(=O)N[C@@H](CCSC)C(=O)N[C@@H](CC(N)=O)C(=O)N[C@H](C(=O)N[C@@H](CCCCN)C(=O)N[C@@H](CCCNC(=N)N)C(=O)N[C@@H](CC(N)=O)C(=O)N[C@@H](CCCNC(=N)N)C(=O)N[C@@H](CC(N)=O)C(=O)N[C@@H](CC(N)=O)C(=O)N[C@H](C(=O)N[C@@H](C)C(=O)O)[C@@H](C)CC)[C@@H](C)O)C(C)C)C(=O)O [Compound 7]	< 0.01	< 0.01
CCCCCCCCCCCCCCCCCC(=O)N[C@@H](CCC(=O)NCCOCCOCC(=O)NCCOCCOCC(=O)NCCCC[C@H](NC(=O)[C@H](C)NC(=O)[C@H](CCCNC(=N)N)NC(=O)[C@H](CCCNC(=N)N)NC(=O)C(C)(C)NC(=O)[C@H](CC(=O)O)NC(=O)[C@H](CC(C)C)NC(=O)[C@H](Cc1ccc(O)cc1)NC(=O)[C@H](CCCCN)NC(=O)[C@H](CO)NC(=O)[C@H](Cc1ccc(O)cc1)NC(=O)[C@H](CC(=O)O)NC(=O)[C@H](CO)NC(=O)[C@@H](NC(=O)[C@H](Cc1ccccc1)NC(=O)[C@@H](NC(=O)CNC(=O)[C@H](CCC(N)=O)NC(=O)C(C)(C)NC(=O)[C@@H](N)Cc1c[nH]cn1)[C@@H](C)O)[C@@H](C)O)C(=O)N[C@@H](CC(=O)O)C(=O)N[C@@H](Cc1ccccc1)C(=O)N[C@H](C(=O)N[C@@H](CCC(N)=O)C(=O)N[C@@H](Cc1c[nH]c2ccccc12)C(=O)N[C@@H](CC(C)C)C(=O)N[C@@H](CCSC)C(=O)N[C@@H](CC(N)=O)C(=O)N[C@H](C(=O)N[C@@H](CCCCN)C(=O)O)[C@@H](C)O)C(C)C)C(=O)O [Compound 16]	< 0.01	< 0.01
CCCCCCCCCCCCCCCCCC(=O)N[C@@H](CCC(=O)NCCOCCOCC(=O)NCCOCCOCC(=O)NCCCC[C@H](NC(=O)[C@H](CC(=O)O)NC(=O)[C@H](CC(C)C)NC(=O)[C@H](Cc1ccc(O)cc1)NC(=O)[C@H](CCCCN)NC(=O)[C@H](CO)NC(=O)[C@H](Cc1ccc(O)cc1)NC(=O)[C@H](CC(=O)O)NC(=O)[C@H](CO)NC(=O)[C@@H](NC(=O)[C@H](Cc1ccccc1)NC(=O)[C@@H](NC(=O)CNC(=O)[C@H](CCC(N)=O)NC(=O)C(C)(C)NC(=O)[C@@H](N)Cc1c[nH]cn1)[C@@H](C)O)[C@@H](C)O)C(=O)N[C@@H](CCCNC(=N)N)C(=O)N[C@@H](CCCNC(=N)N)C(=O)N[C@@H](C)C(=O)N[C@@H](CCC(N)=O)C(=O)N[C@@H](CC(=O)O)C(=O)N[C@@H](Cc1ccccc1)C(=O)N[C@H](C(=O)N[C@@H](CCC(N)=O)C(=O)N[C@@H](Cc1c[nH]c2ccccc12)C(=O)N[C@@H](CC(C)C)C(=O)N[C@@H](CCSC)C(=O)N[C@@H](CC(N)=O)C(=O)N[C@H](C(=O)N[C@@H](CCCCN)C(=O)O)[C@@H](C)O)C(C)C)C(=O)O [Compound 15, H-HAibQGTFTSDYSKYLDZRRAQDFVQWLMNTK-OH]	< 0.01	< 0.01
CCCCCCCCCCCCCCCCCC(=O)N[C@@H](CCC(=O)NCCOCCOCC(=O)NCCOCCOCC(=O)NCCCC[C@H](NC(=O)[C@H](CO)NC(=O)[C@@H](NC(=O)[C@H](Cc1ccccc1)NC(=O)[C@@H](NC(=O)CNC(=O)[C@H](CCC(N)=O)NC(=O)C(C)(C)NC(=O)[C@@H](N)Cc1c[nH]cn1)[C@@H](C)O)[C@@H](C)O)C(=O)N[C@@H](Cc1ccc(O)cc1)C(=O)N[C@@H](CO)C(=O)N[C@@H](CCCCN)C(=O)N[C@@H](Cc1ccc(O)cc1)C(=O)N[C@@H](CC(C)C)C(=O)N[C@@H](CC(=O)O)C(=O)NC(C)(C)C(=O)N[C@@H](CCCNC(=N)N)C(=O)N[C@@H](CCCNC(=N)N)C(=O)N[C@@H](C)C(=O)N[C@@H](CCC(N)=O)C(=O)N[C@@H](CC(=O)O)C(=O)N[C@@H](Cc1ccccc1)C(=O)N[C@H](C(=O)N[C@@H](CCC(N)=O)C(=O)N[C@@H](Cc1c[nH]c2ccccc12)C(=O)N[C@@H](CC(C)C)C(=O)N[C@@H](CCSC)C(=O)N[C@@H](CC(N)=O)C(=O)N[C@H](C(=O)N[C@@H](CCCCN)C(=O)O)[C@@H](C)O)C(C)C)C(=O)O [Compound 40] (H-H[Aib]QGTFTSK([AEEA-AEEA-γGlu-Stearoyl])YSKYLD[Aib]RRAQDFVQWLMNTK-OH)	0.1 to 1	> 1

Results, then the compound that gave them:

EC50 [1] [nM]	EC50 [2] [nM]	Compound
< 0.01	< 0.01	CCCCCCCCCCCCCCCCCC(=O)N[C@@H](CCC(=O)NCCOCCOCC(=O)NCCOCCOCC(=O)NCCOCCOCC(=O)NCCOCCOCC(=O)NCCCC[C@H](NC(=O)[C@H](CC(=O)O)NC(=O)[C@H](CO)NC(=O)[C@@H](NC(=O)[C@H](Cc1ccccc1)NC(=O)[C@@H](NC(=O)CNC(=O)[C@H](CCC(N)=O)NC(=O)C(C)(C)NC(=O)[C@@H](N)Cc1c[nH]cn1)[C@@H](C)O)[C@@H](C)O)C(=O)N[C@@H](CO)C(=O)N[C@@H](CCCCN)C(=O)N[C@@H](Cc1ccc(O)cc1)C(=O)N[C@@H](CC(C)C)C(=O)N[C@@H](CC(=O)O)C(=O)N[C@H]1CCC(=O)NCCCC[C@@H](C(=O)N[C@@H](CC(=O)O)C(=O)N[C@@H](Cc2ccccc2)C(=O)N[C@H](C(=O)N[C@@H](CCC(N)=O)C(=O)N[C@@H](Cc2c[nH]c3ccccc23)C(=O)N[C@@H](CC(C)C)C(=O)N[C@@H](CCSC)C(=O)N[C@@H](CC(N)=O)C(=O)N[C@H](C(=O)N[C@@H](CCCCN)C(=O)O)[C@@H](C)O)C(C)C)NC(=O)[C@H](C)NC(=O)[C@H](CCCNC(=N)N)NC(=O)[C@H](CCCNC(=N)N)NC1=O)C(=O)O [Compound 25, H-HAibQGTFTSDZSKYLDERRAKDFVQWLMNTK-OH]
< 0.01	< 0.01	CCCCCCCCCCCCCCCCCC(=O)N[C@@H](CCC(=O)NCCOCCOCC(=O)NCCOCCOCC(=O)NCCCC[C@H](NC(=O)[C@H](CC(=O)O)NC(=O)[C@H](CO)NC(=O)[C@@H](NC(=O)[C@H](Cc1ccccc1)NC(=O)[C@@H](NC(=O)CNC(=O)[C@H](CCC(N)=O)NC(=O)C(C)(C)NC(=O)[C@@H](N)Cc1c[nH]cn1)[C@@H](C)O)[C@@H](C)O)C(=O)N[C@@H](CO)C(=O)N[C@@H](CCCCN)C(=O)N[C@@H](Cc1ccc(O)cc1)C(=O)N[C@@H](CC(C)C)C(=O)N[C@@H](CC(=O)O)C(=O)N[C@H]1CCC(=O)NCCNC(=O)CC[C@@H](C(=O)N[C@@H](CC(=O)O)C(=O)N[C@@H](Cc2ccccc2)C(=O)N[C@H](C(=O)N[C@@H](CCC(N)=O)C(=O)N[C@@H](Cc2c[nH]c3ccccc23)C(=O)N[C@@H](CC(C)C)C(=O)N[C@@H](CCSC)C(=O)N[C@@H](CC(N)=O)C(=O)N[C@H](C(=O)N[C@@H](CCCCN)C(=O)O)[C@@H](C)O)C(C)C)NC(=O)[C@H](C)NC(=O)[C@H](CCCNC(=N)N)NC(=O)[C@H](CCCNC(=N)N)NC1=O)C(=O)O [Compound 30, H-HAibQGTFTSDZSKYLDERRAEDFVQWLMNTK-OH]
< 0.01	0.01 to 0.1	CCCCCCCCCCCCCCCCCC(=O)N[C@@H](CCC(=O)NCCOCCOCC(=O)NCCOCCOCC(=O)NCCOCCOCC(=O)NCCOCCOCC(=O)NCCCC[C@H](NC(=O)[C@H](CC(=O)O)NC(=O)[C@H](CO)NC(=O)[C@@H](NC(=O)[C@H](Cc1ccccc1)NC(=O)[C@@H](NC(=O)CNC(=O)[C@H](CCC(N)=O)NC(=O)C(C)(C)NC(=O)[C@@H](N)Cc1c[nH]cn1)[C@@H](C)O)[C@@H](C)O)C(=O)N[C@@H](CO)C(=O)N[C@@H](CCCCN)C(=O)N[C@@H](Cc1ccc(O)cc1)C(=O)N[C@@H](CC(C)C)C(=O)N[C@@H](CC(=O)O)C(=O)N[C@H]1CCC(=O)NCCCC[C@@H](C(=O)N[C@@H](CC(=O)O)C(=O)N[C@@H](Cc2ccccc2)C(=O)N[C@H](C(=O)N[C@@H](CCC(N)=O)C(=O)N[C@@H](Cc2c[nH]c3ccccc23)C(=O)N[C@@H](CC(C)C)C(=O)N[C@@H](CCSC)C(=O)N[C@@H](CC(N)=O)C(=O)N[C@H](C(=O)N[C@@H](CCCCN)C(N)=O)[C@@H](C)O)C(C)C)NC(=O)[C@H](C)NC(=O)[C@H](CCCNC(=N)N)NC(=O)[C@H](CCCNC(=N)N)NC1=O)C(=O)O [Compound 24, H-HAibQGTFTSDZSKYLDERRAKDFVQWLMNTK-NH2]
< 0.01	< 0.01	CCCCCCCCCCCCCCCCCC(=O)N[C@@H](CCC(=O)NCCOCCOCC(=O)NCCOCCOCC(=O)NCCCC[C@H](NC(=O)[C@H](CC(=O)O)NC(=O)[C@H](CO)NC(=O)[C@@H](NC(=O)[C@H](Cc1ccccc1)NC(=O)[C@@H](NC(=O)CNC(=O)[C@H](CCC(N)=O)NC(=O)C(C)(C)NC(=O)[C@@H](N)Cc1c[nH]cn1)[C@@H](C)O)[C@@H](C)O)C(=O)N[C@@H](CO)C(=O)N[C@@H](CCCCN)C(=O)N[C@@H](Cc1ccc(O)cc1)C(=O)N[C@@H](CC(C)C)C(=O)N[C@@H](CC(=O)O)C(=O)N[C@H]1CC(=O)NCCCC[C@@H](C(=O)N[C@@H](CC(=O)O)C(=O)N[C@@H](Cc2ccccc2)C(=O)N[C@H](C(=O)N[C@@H](CCC(N)=O)C(=O)N[C@@H](Cc2c[nH]c3ccccc23)C(=O)N[C@@H](CC(C)C)C(=O)N[C@@H](CCSC)C(=O)N[C@@H](CC(N)=O)C(=O)N[C@H](C(=O)N[C@@H](CCCCN)C(=O)O)[C@@H](C)O)C(C)C)NC(=O)[C@H](C)NC(=O)[C@H](CCCNC(=N)N)NC(=O)[C@H](CCCNC(=N)N)NC1=O)C(=O)O [Compound 26, H-HAibQGTFTSDZSKYLDDRRAKDFVQWLMNTK-OH]
